Values quoted from earlier work, collected in US11083704B2, “Method of administering nitroxyl donating compounds” (Cardioxyl Pharmaceuticals, Inc., priority 2017, dated 2021).

Assays:
[1] = preclinical models and Phase I/IIa studies
[2] = healthy patients and patients hospitalized with advanced heart failure

**Q.** With `Cc1ccc(S(=O)(=O)NO)o1` [N-hydroxy-5-methylfuran-2-sulfonamide] as the compound, how does the inotropy [1] read?
**A.** increased inotropy

**Q.** What about the lusitropy [1] of the same compound?
**A.** improved lusitropy

**Q.** What about the vasodilation [1] of the same compound?
**A.** peripheral vasodilation

**Q.** What about the “safety and tolerability of infusions” value [2] of the same compound?
**A.** safe and well-tolerated
